Test results: PubChem BioAssay (NCI)
Several values for one entry are separate records, joined by “and”; a condition that tells them apart may be missing. Equal entries are not always repeated.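 Test compounds were applied to cells in 96-well plates for 48 hours at 5 doses. TGI denotes the concentration required for complete inhibition of growth.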

Key:
Test in all cases: NCI anticancer screen, dose series, 48 h
LXFL 529 NSCLC = system: LXFL 529 NSCLC
DMS 273 small cell lung = system: DMS 273 small cell lung
DLD-1 colon = system: DLD-1 colon

**Q.** With CC(C)=CCSC1CC2C(CC1(C)O)C2(C)C (stereo not drawn) as the molecule, how does the TGI (LXFL 529 NSCLC) read?
**A.** 31.7 µM and 27.1 µM

**Q.** And the TGI (DMS 273 small cell lung)?
**A.** 29.9 µM and 21.5 µM

**Q.** And the TGI (DLD-1 colon)?
**A.** 33.4 µM and 27.4 µM
